Each molecule was assayed against T1, pY705-STAT3 in PBMC (Homo sapiens, UniProt P40763) (assay: MSD-pSTAT-PBMC Assay (pSTAT3, IL-6 stimulated)). Conditions: PBMC, compound 3 hrs, then 10 ng/mL IL-6 for 10 min; Table 115; read-out: STAT3.
T1 construct: Cryopreserved Peripheral Blood Mononuclear Cells (PBMC) are from AllCells; host or cells: cryopreserved PBMC
Assay type: cell-based
Procedure, shortened: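 Inhibition of cytokine-induced STAT phosphorylation was measured in recovered human PBMC after 3 hrs compound exposure and a 10 min IL-4 (1 ng/mL) or IL-6 (10 ng/mL) challenge. MSD detection of pY641-STAT6 or pY705-STAT3 yielded IC50 values.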

T1 sequence (P40763 whole entry): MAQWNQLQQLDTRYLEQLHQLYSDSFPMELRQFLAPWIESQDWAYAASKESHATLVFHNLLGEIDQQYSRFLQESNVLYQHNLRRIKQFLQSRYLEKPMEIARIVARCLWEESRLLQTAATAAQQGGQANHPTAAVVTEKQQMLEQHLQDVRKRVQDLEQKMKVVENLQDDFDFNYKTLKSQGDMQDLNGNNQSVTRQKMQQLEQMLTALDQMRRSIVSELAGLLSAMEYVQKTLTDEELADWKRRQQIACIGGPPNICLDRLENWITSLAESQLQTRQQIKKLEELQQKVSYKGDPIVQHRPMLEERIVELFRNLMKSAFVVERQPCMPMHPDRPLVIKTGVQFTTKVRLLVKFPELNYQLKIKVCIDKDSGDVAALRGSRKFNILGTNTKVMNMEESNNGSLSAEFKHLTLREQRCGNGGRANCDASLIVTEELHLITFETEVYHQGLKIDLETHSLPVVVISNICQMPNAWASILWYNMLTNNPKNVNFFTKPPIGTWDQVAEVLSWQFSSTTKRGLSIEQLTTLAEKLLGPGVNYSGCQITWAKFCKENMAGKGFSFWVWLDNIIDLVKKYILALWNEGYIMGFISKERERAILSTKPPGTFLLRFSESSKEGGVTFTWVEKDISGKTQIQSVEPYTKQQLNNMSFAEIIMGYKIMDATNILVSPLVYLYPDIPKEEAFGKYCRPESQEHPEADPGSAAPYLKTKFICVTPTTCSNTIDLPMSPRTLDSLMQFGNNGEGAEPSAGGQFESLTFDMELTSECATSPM

SMILES	IC50
CCCOC(=O)[C@H](C)NP(=O)(Oc1ccccc1)C(F)(F)c1ccc2sc(C(=O)N[C@H]3CCC[C@H]4CC[C@@H](C(=O)N5CC(c6cccnc6)C5)N4C3=O)cc2c1 (stereo partly drawn) [Compound 306, propyl ((difluoro(2-(((3S,6S,9aS)-5-oxo-3-(3-(pyridin-3-yl)azetidine-1-carbonyl)octahydro-1H-pyrrolo[1,2-a]azepin-6-yl)carbamoyl)benzo [b]thiophen-5-yl)methyl)(phenoxy)phosphoryl)-L-alaninate]	1 to 3 µM
CCCOC(=O)[C@H](C)NP(=O)(Cc1ccc2sc(C(=O)N[C@H]3CCC[C@H]4CC[C@@H](C(=O)N5CC(c6cccnc6)C5)N4C3=O)cc2c1)Oc1ccccc1 (stereo partly drawn) [Compound 307, propyl (((2-(((3S,6S,9aS)-5-oxo-3-(3-(pyridin-3-yl)azetidine-1-carbonyl)octahydro-1H-pyrrolo[1,2-a]azepin-6-yl)carbamoyl)benzo [b]thiophen-5-yl)methyl)(phenoxy)phosphoryl)-L-alaninate]	> 3 µM
CCCOC(=O)[C@H](C)NP(=O)(Cc1ccc2sc(C(=O)N[C@H]3CCC[C@H]4CC[C@@H](C(=O)N[C@H]5CN(C(C)=O)C[C@@H]5F)N4C3=O)cc2c1)Oc1ccccc1 (stereo partly drawn) [Compound 308, propyl (((2-(((3S,6S,9aS)-3-(((3S,4S)-1-acetyl-4-fluoropyrrolidin-3-yl)carbamoyl)-5-oxooctahydro-1H-pyrrolo[1,2-a]azepin-6-yl)carbamoyl)benzo [b]thiophen-5-yl)methyl)(phenoxy)phosphoryl)-L-alaninate]	> 3 µM
CCCOC(=O)[C@H](C)NP(=O)(Cc1ccc2sc(C(=O)N[C@H]3CCC[C@H]4CC[C@@H](C(=O)N[C@H]5CN(C(C)=O)C[C@H]5F)N4C3=O)cc2c1)Oc1ccccc1 (stereo partly drawn) [Compound 309, propyl (((2-(((3S,6S,9aS)-3-(((3S,4R)-1-acetyl-4-fluoropyrrolidin-3-yl)carbamoyl)-5-oxooctahydro-1H-pyrrolo[1,2-a]azepin-6-yl)carbamoyl)benzo [b]thiophen-5-yl)methyl)(phenoxy)phosphoryl)-L-alaninate]	> 3 µM
CCCOC(=O)[C@@H]1CCCN1P(=O)(Cc1ccc2sc(C(=O)N[C@H]3CCC[C@H]4CC[C@@H](C(=O)N5CC(c6cccnc6)C5)N4C3=O)cc2c1)N1CCC[C@H]1C(=O)OCCC [Compound 310, dipropyl (((2-(((3S,6S,9aS)-5-oxo-3-(3-(pyridin-3-yl)azetidine-1-carbonyl)octahydro-1H-pyrrolo[1,2-a]azepin-6-yl)carbamoyl)benzo [b]thiophen-5-yl)methyl)phosphoryl) (S)-di-L-prolinate]	0.1 to 1 µM
CCCOC(=O)CC(C)NP(=O)(Cc1ccc2sc(C(=O)N[C@H]3CCC[C@H]4CC[C@@H](C(=O)N5CC(c6cccnc6)C5)N4C3=O)cc2c1)Oc1ccccc1 (stereo partly drawn) [Compound 311, propyl 3-((((2-(((3S,6S,9aS)-5-oxo-3-(3-(pyridin-3-yl)azetidine-1-carbonyl)octahydro-1H-pyrrolo[1,2-a]azepin-6-yl)carbamoyl)benzo [b]thiophen-5-yl)methyl)(phenoxy)phosphoryl)amino) butanoate]	> 3 µM
CCCOC(=O)[C@H](C)NP(=O)(Oc1ccccc1)C(C)(F)c1ccc2sc(C(=O)N[C@H]3CCC[C@H]4CC[C@@H](C(=O)N5CC(c6cccnc6)C5)N4C3=O)cc2c1 (stereo partly drawn) [Compound 313, propyl ((1-fluoro-1-(2-(((3S,6S,9aS)-5-oxo-3-(3-(pyridin-3-yl)azetidine-1-carbonyl)octahydro-1H-pyrrolo[1,2-a]azepin-6-yl)carbamoyl)benzo [b]thiophen-5-yl)ethyl)(phenoxy)phosphoryl)-L-alaninate]	1 to 3 µM
CCCCOC(=O)[C@@H]1CC(F)(F)CN1P(=O)(Oc1ccccc1)C(F)(F)c1ccc2sc(C(=O)N[C@H]3CCC[C@H]4CC[C@@H](C(=O)N5CC(c6cccnc6)C5)N4C3=O)cc2c1 (stereo partly drawn) [Compound 323, butyl (2S)-1-((difluoro(2-(((3S,6S,9aS)-5-oxo-3-(3-(pyridin-3-yl)azetidine-1-carbonyl)octahydro-1H-pyrrolo[1,2-a]azepin-6-yl)carbamoyl)benzo [b]thiophen-5-yl)methyl)(phenoxy)phosphoryl)-4,4-difluoropyrrolidine-2-carboxylate]	> 3 µM
CCOC(=O)[C@H](Cc1ccccc1)NP(=O)(Cc1ccc2sc(C(=O)N[C@H]3CCC[C@H]4CC[C@@H](C(=O)N5CC(c6cccnc6)C5)N4C3=O)cc2c1)Oc1ccccc1 (stereo partly drawn) [Compound 389, ethyl (((2-(((3S,6S,9aS)-5-oxo-3-(3-(pyridin-3-yl)azetidine-1-carbonyl)octahydro-1H-pyrrolo[1,2-a]azepin-6-yl)carbamoyl)benzo [b]thiophen-5-yl)methyl)(phenoxy)phosphoryl)-L-phenylalaninate]	0.1 to 1 µM
CC(C)C[C@H](NP(=O)(Cc1ccc2sc(C(=O)N[C@H]3CCC[C@H]4CC[C@@H](C(=O)N5CC(c6cccnc6)C5)N4C3=O)cc2c1)Oc1ccccc1)C(=O)OCc1ccccc1 (stereo partly drawn) [Compound 390, benzyl (((2-(((3S,6S,9aS)-5-oxo-3-(3-(pyridin-3-yl)azetidine-1-carbonyl)octahydro-1H-pyrrolo[1,2-a]azepin-6-yl)carbamoyl)benzo [b]thiophen-5-yl)methyl)(phenoxy)phosphoryl)-L-leucinate]	0.1 to 1 µM
CC(C)OC(=O)[C@@H]1CCCN1P(=O)(Cc1ccc2sc(C(=O)N[C@H]3CCC[C@H]4CC[C@@H](C(=O)N5CC(c6cccnc6)C5)N4C3=O)cc2c1)Oc1ccccc1 (stereo partly drawn) [Compound 391, isopropyl (((2-(((3S,6S,9aS)-5-oxo-3-(3-(pyridin-3-yl)azetidine-1-carbonyl)octahydro-1H-pyrrolo[1,2-a]azepin-6-yl)carbamoyl)benzo [b]thiophen-5-yl)methyl)(phenoxy)phosphoryl)-L-prolinate]	1 to 3 µM
COC[C@H](NP(=O)(Cc1ccc2sc(C(=O)N[C@H]3CCC[C@H]4CC[C@@H](C(=O)N5CC(c6cccnc6)C5)N4C3=O)cc2c1)Oc1ccccc1)C(=O)OC(C)C (stereo partly drawn) [Compound 392, isopropyl O-methyl-N-(((2-(((3S,6S,9aS)-5-oxo-3-(3-(pyridin-3-yl)azetidine-1-carbonyl)octahydro-1H-pyrrolo[1,2-a]azepin-6-yl)carbamoyl)benzo [b]thiophen-5-yl)methyl)(phenoxy)phosphoryl)-L-serinate]	0.1 to 1 µM
COCCOC(=O)[C@H](C)NP(=O)(Cc1ccc2sc(C(=O)N[C@H]3CCC[C@H]4CC[C@@H](C(=O)N5CC(c6cccnc6)C5)N4C3=O)cc2c1)Oc1ccccc1 (stereo partly drawn) [Compound 393, 2-methoxyethyl (((2-(((3S,6S,9aS)-5-oxo-3-(3-(pyridin-3-yl)azetidine-1-carbonyl)octahydro-1H-pyrrolo[1,2-a]azepin-6-yl)carbamoyl)benzo [b]thiophen-5-yl)methyl)(phenoxy)phosphoryl)-L-alaninate]	0.1 to 1 µM
C[C@H](NP(=O)(Cc1ccc2sc(C(=O)N[C@H]3CCC[C@H]4CC[C@@H](C(=O)N5CC(c6cccnc6)C5)N4C3=O)cc2c1)Oc1ccccc1)C(=O)OCc1ccccc1 (stereo partly drawn) [Compound 394, benzyl (((2-(((3S,6S,9aS)-5-oxo-3-(3-(pyridin-3-yl)azetidine-1-carbonyl)octahydro-1H-pyrrolo[1,2-a]azepin-6-yl)carbamoyl)benzo [b]thiophen-5-yl)methyl)(phenoxy)phosphoryl)-L-alaninate]	< 0.1 µM
CC(C)OC(=O)C(C)(C)NP(=O)(Cc1ccc2sc(C(=O)N[C@H]3CCC[C@H]4CC[C@@H](C(=O)N5CC(c6cccnc6)C5)N4C3=O)cc2c1)Oc1ccccc1 (stereo partly drawn) [Compound 395, isopropyl 2-methyl-2-((((2-(((3S,6S,9aS)-5-oxo-3-(3-(pyridin-3-yl)azetidine-1-carbonyl)octahydro-1H-pyrrolo[1,2-a]azepin-6-yl)carbamoyl)benzo [b]thiophen-5-yl)methyl)(phenoxy)phosphoryl)amino) propanoate]	0.1 to 1 µM
O=C(N[C@H]1CCC[C@H]2CC[C@@H](C(=O)N3CC(c4cccnc4)C3)N2C1=O)c1cc2cc(CP(=O)(N[C@H]3CCOC3=O)Oc3ccccc3)ccc2s1 (stereo partly drawn) [Compound 398, phenyl P-((2-(((3S,6S,9aS)-5-oxo-3-(3-(pyridin-3-yl)azetidine-1-carbonyl)octahydro-1H-pyrrolo[1,2-a]azepin-6-yl)carbamoyl)benzo [b]thiophen-5-yl)methyl)-N-((S)-2-oxotetrahydrofuran-3-yl)phosphonamidate]	> 3 µM
CC(C)OC(=O)[C@H](C)NP(=O)(Cc1ccc2sc(C(=O)N[C@H]3CCC[C@H]4CC[C@@H](C(=O)N5CC(c6cccnc6)C5)N4C3=O)cc2c1)N[C@@H](C)C(=O)OC(C)C [Compound 399, diisopropyl 2,2′-((((2-(((3S,6S,9aS)-5-oxo-3-(3-(pyridin-3-yl)azetidine-1-carbonyl)octahydro-1H-pyrrolo[1,2-a]azepin-6-yl)carbamoyl)benzo [b]thiophen-5-yl)methyl)phosphoryl)bis(azanediyl)) (2S,2′S)-dipropionate]	1 to 3 µM
CCCOC(=O)[C@H](C)NP(=O)(Oc1ccccc1)C(F)(F)c1ccc2sc(C(=O)N[C@H]3CCC[C@H]4CC[C@@H](C(=O)N5CC(c6cccnc6)C5)N4C3=O)cc2c1 (stereo partly drawn) [Compound 400, propyl ((difluoro(2-(((3S,6S,9aS)-5-oxo-3-(3-(pyridin-3-yl)azetidine-1-carbonyl)octahydro-1H-pyrrolo[1,2-a]azepin-6-yl)carbamoyl)benzo [b]thiophen-5-yl)methyl)(phenoxy)phosphoryl)-L-alaninate]	0.1 to 1 µM
O=C(N[C@H]1CCC[C@H]2CC[C@@H](C(=O)N3CC(c4cccnc4)C3)N2C1=O)c1cc2cc(CP(=O)(N[C@@H](CCc3ccccc3)C(=O)OCc3ccccc3)Oc3ccccc3)ccc2s1 (stereo partly drawn) [Compound 401, benzyl (2S)-2-((((2-(((3S,6S,9aS)-5-oxo-3-(3-(pyridin-3-yl)azetidine-1-carbonyl)octahydro-1H-pyrrolo[1,2-a]azepin-6-yl)carbamoyl)benzo [b]thiophen-5-yl)methyl)(phenoxy)phosphoryl)amino)-4-phenylbutanoate]	> 3 µM

Source: US20250215029A1 (Recludix Pharma, Inc., priority 2022, published 2025)
